Data published in patent US4452812A, “Organic complex of platinum, its preparation and its use for treating malignant tumors” (Sanofi, priority 1980, dated 1984).

Test system: baboon
Assay: Preliminary toxicological study in the baboon
Type: in vivo
Parameters: creatine level / Granulocytes / Platelets: unit not given here
Protocol: In order to find out the maximum tolerable dose, two baboons, identified by no 1 and no 2, received 100 mg/kg and 150 mg/kg respectively without prehydration. Hydration was performed on baboon no 3 which received a dose of 200 mg/kg.
The compound was injected into the femoral vein during 5 to 10 minutes. Baboon No. 3 (200 mg/kg) received 700 ml of physiological serum by intravenous route. Baboons Nos. 1 and 2 received 1000 ml by sub-cutaneous route.
Gastro-intestinal toxicity was the first type of toxicity to appear and generally manifested itself 1 to 2 hours after injection of the compound. […] D0 was the day of treatment and a sample was taken before the compound was injected.
The results on D0 were therefore control values.

[1] = baboon No 1, 100 mg/kg i.v., D2
[2] = baboon No 1, 100 mg/kg i.v., D6
[3] = baboon No 1, 100 mg/kg i.v., D16
[4] = baboon No 1, 100 mg/kg i.v., D30
[5] = baboon No 1, 100 mg/kg i.v., D37
[6] = baboon No 1, 100 mg/kg i.v., D38
[7] = baboon No 1, 100 mg/kg i.v., D41
[8] = baboon No 1, 100 mg/kg i.v., D48
[9] = baboon No 1, 100 mg/kg i.v., D57
[10] = baboon No 1, 100 mg/kg i.v., D62
[11] = baboon No 1, 100 mg/kg i.v., D76
[12] = baboon No 1, 100 mg/kg i.v., D79
[13] = baboon No 1, 100 mg/kg i.v., D85
[14] = baboon No 1, 100 mg/kg i.v., D90
[15] = baboon No 1, 100 mg/kg i.v., D100
[16] = baboon No 1, 100 mg/kg i.v., D105
[17] = baboon No 1, 100 mg/kg i.v., D106
[18] = baboon No 1, 100 mg/kg i.v., D111
[19] = baboon No 1, 100 mg/kg i.v., D122
[20] = baboon No 1, 100 mg/kg i.v., D129
[21] = baboon No 1, 100 mg/kg i.v., D134
[22] = baboon No 1, 100 mg/kg i.v., D140
[23] = baboon No 2, 150 mg/kg i.v., D1
[24] = baboon No 2, 150 mg/kg i.v., D4
[25] = baboon No 2, 150 mg/kg i.v., D11
[26] = baboon No 3, 200 mg/kg i.v., D4
[27] = baboon No 3, 200 mg/kg i.v., D6
[28] = baboon No 3, 200 mg/kg i.v., D12
[29] = baboon No 3, 200 mg/kg i.v., D15
[30] = baboon No 3, 200 mg/kg i.v., D18
[31] = baboon No 3, 200 mg/kg i.v., D24
[32] = baboon No 3, 200 mg/kg i.v., D30
[33] = baboon No 3, 200 mg/kg i.v., D40

NC1CCCCC1N.O=C([O-])CC(C(=O)[O-])C([O-])C(=O)[O-].[H+].[H+].[Pt+2] (stereo not drawn) [PHIC, cis-isocitrato (1,2-diaminocyclohexane) platinum (II)]
nephrotoxic effect (100 mg/kg i.v., absence of hydration): no nephrotoxic effect was observed
day on which creatinine levels return to normal values (200 mg/kg i.v. with hydration): 18 days
nephrotoxicity (200 mg/kg i.v. with hydration): nephtotoxicity is detected
vomiting (severity) (100-200 mg/kg i.v.): vomiting was not profuse
Quick plasma prothrombin time (baboon No 1, 100 mg/kg i.v., D1): 75%
Creatinine [1]: 110 μmols/l
Fibrinogen I [1]: 2.25 g/L
Quick plasma prothrombin time [1]: 80%
Creatinine [2]: 91 μmols/l
Fibrinogen I [2]: 2.40 g/L
Granulocytes [2]: 2480
Platelets [2]: 526000
Proaccelerin V [2]: 100%
Proconvertin VII + Stuart factor X [2]: 70%
Prothrombin II [2]: 95%
Quick plasma prothrombin time [2]: 65%
Weight [2]: 7.7 kg
Creatinine [3]: 105 μmols/l
Fibrinogen I [3]: 1.95 g/L
Granulocytes [3]: 4560
Platelets [3]: 414000
Quick plasma prothrombin time [3]: 95%
Weight [3]: 8.4 kg
Creatinine [4]: 138 μmols/l
Fibrinogen I [4]: 1.52 g/L
Granulocytes [4]: 3969
Platelets [4]: 414000
Quick plasma prothrombin time [4]: 85%
Creatinine [5]: 99 μmols/l
Fibrinogen I [5]: 1.46 g/L
Granulocytes [5]: 2989
Platelets [5]: 362000
Quick plasma prothrombin time [5]: 85%
Weight [5]: 8.35 kg
Creatinine [6]: 85 μmols/l
Fibrinogen I [6]: 1.85 g/L
Granulocytes [6]: 4824
Platelets [6]: 299000
Quick plasma prothrombin time [6]: 85%
Creatinine [7]: 102 μmols/l
Fibrinogen I [7]: 2.72 g/L
Granulocytes [7]: 4212
Platelets [7]: 371000
Quick plasma prothrombin time [7]: 100%
Creatinine [8]: 136 μmols/l
Fibrinogen I [8]: 2.70 g/L
Granulocytes [8]: 3696
Platelets [8]: 708000
Quick plasma prothrombin time [8]: 95%
Weight [8]: 7.6 kg
Creatinine [9]: 96 μmols/l
Fibrinogen I [9]: 2.67 g/L
Granulocytes [9]: 2498
Platelets [9]: 329000
Quick plasma prothrombin time [9]: 90%
Weight (baboon No 1, 100 mg/kg i.v., D58): 8.45 kg
Creatinine [10]: 136 μmols/l
Fibrinogen I [10]: 1.86 g/L
Granulocytes [10]: 3726
Platelets [10]: 378000
Quick plasma prothrombin time [10]: 50%
Creatinine [11]: 121 μmols/l
Fibrinogen I [11]: 1.75 g/L
Granulocytes [11]: 1071
Platelets [11]: 375000
Quick plasma prothrombin time [11]: 95%
Creatinine [12]: 138 μmols/l
Fibrinogen I [12]: 2.10 g/L
Granulocytes [12]: 2541
Platelets [12]: 382000
Quick plasma prothrombin time [12]: 95%
Weight (baboon No 1, 100 mg/kg i.v., D84): 7.93 kg
Creatinine [13]: 97 μmols/l
Fibrinogen I [13]: 2.08 g/L
Granulocytes [13]: 3599
Platelets [13]: 549000
Proaccelerin V [13]: 100%
Proconvertin VII + Stuart factor X [13]: 90%
Quick plasma prothrombin time [13]: 85%
Creatinine [14]: 96 μmols/l
Granulocytes [14]: 1917
Platelets [14]: 685000
Creatinine [15]: 110 μmols/l
Fibrinogen I [15]: 2.50 g/L
Granulocytes [15]: 3230
Platelets [15]: 340000
Quick plasma prothrombin time [15]: 95%
Creatinine [16]: 60 μmols/l
Fibrinogen I [16]: 2.25 g/L
Granulocytes [16]: 2030
Platelets [16]: 266000
Quick plasma prothrombin time [16]: 95%
Weight [16]: 8.59 kg
Creatinine [17]: 120 μmols/l
Fibrinogen I [17]: 2.20 g/L
Granulocytes [17]: 10120
Platelets [17]: 231000
Quick plasma prothrombin time [17]: 75%
Creatinine [18]: 102 μmols/l
Fibrinogen I [18]: 2.20 g/L
Granulocytes [18]: 1121
Platelets [18]: 345000
Proaccelerin V [18]: 100%
Proconvertin VII + Stuart factor X [18]: 39%
Prothrombin II [18]: 70%
Quick plasma prothrombin time [18]: 48%
Fibrinogen I [19]: 2.10 g/L
Granulocytes [19]: 1232
Platelets [19]: 348000
Quick plasma prothrombin time [19]: 100%
BUN (baboon No 1, 100 mg/kg i.v., D122, normal range 3-7 mmol/l): 4.5 mmol/L
Creatinine [20]: 90 μmols/l
Fibrinogen I [20]: 2.15 g/L
Granulocytes [20]: 5406
Platelets [20]: 508000
Quick plasma prothrombin time [20]: 100%
Weight (baboon No 1, 100 mg/kg i.v., D133): 7.65 kg
Creatinine [21]: 126 μmols/l
Granulocytes [21]: 7245
Platelets [21]: 580000
Creatinine [22]: 114 μmols/l
Fibrinogen I [22]: 2.50 g/L
Granulocytes [22]: 4794
Platelets [22]: 441000
Quick plasma prothrombin time [22]: 100%
creatine level (baboon No 2, 150 mg/kg i.v.): 1552
death (baboon No 2, 150 mg/kg i.v.): died on D11
food and water intake (baboon No 2, 150 mg/kg i.v.): neither eaten nor drunk for 11 days
Creatinine [23]: 96 μmols/l
Fibrinogen I [23]: 1.46 g/L
Granulocytes [23]: 9672
Platelets [23]: 261000
Proaccelerin V [23]: 70%
Proconvertin VII + Stuart factor X [23]: 62%
Prothrombin II [23]: 42%
Quick plasma prothrombin time [23]: 60%
Creatinine [24]: 245 μmols/l
Fibrinogen I [24]: 2.82 g/L
Granulocytes [24]: 1988
Platelets [24]: 212000
Quick plasma prothrombin time [24]: 85%
Creatinine [25]: 1552 μmols/l
Fibrinogen I [25]: 4.20 g/L
Granulocytes [25]: 555
Platelets [25]: 174000
Proaccelerin V [25]: 100%
Proconvertin VII + Stuart factor X [25]: 55%
Prothrombin II [25]: 55%
Quick plasma prothrombin time [25]: 55%
Weight [25]: 5.5 kg
Creatinine [26]: 140 μmols/l
Fibrinogen I [26]: 2.70 g/L
Granulocytes [26]: 4536
Platelets [26]: 70000
Proaccelerin V [26]: 100%
Proconvertin VII + Stuart factor X [26]: < 5%
Prothrombin II [26]: 30%
Quick plasma prothrombin time [26]: 10%
Weight [26]: 6.25 kg
Creatinine [27]: 350 μmols/l
Fibrinogen I [27]: 3.00 g/L
Granulocytes [27]: 5236
Platelets [27]: 208000
Proaccelerin V [27]: 100%
Proconvertin VII + Stuart factor X [27]: 25%
Prothrombin II [27]: 25%
Quick plasma prothrombin time [27]: 30%
Creatinine [28]: 646 μmols/l
Fibrinogen I [28]: 4.80 g/L
Granulocytes [28]: 7905
Platelets [28]: 241000
Quick plasma prothrombin time [28]: 85%
Weight [28]: 5.31 kg
Creatinine [29]: 265 μmols/l
Fibrinogen I [29]: 3.85 g/L
Granulocytes [29]: 3550
Platelets [29]: 114000
Quick plasma prothrombin time [29]: 90%
Creatinine [30]: 118 μmols/l
Fibrinogen I [30]: 2.60 g/L
Granulocytes [30]: 722
Platelets [30]: 312000
Quick plasma prothrombin time [30]: 100%
Creatinine [31]: 97 μmols/l
Fibrinogen I [31]: 2.00 g/L
Granulocytes [31]: 4872
Platelets [31]: 366000
Quick plasma prothrombin time [31]: 100%
Weight [31]: 5.6 kg
Creatinine [32]: 104 μmols/l
Fibrinogen I [32]: 2.25 g/L
Granulocytes [32]: 10752
Platelets [32]: 457000
Quick plasma prothrombin time [32]: 95%
Weight [32]: 5.9 kg
Creatinine [33]: 94 μmols/l
Fibrinogen I [33]: 1.50 g/L
Granulocytes [33]: 4731
Platelets [33]: 299000
Quick plasma prothrombin time [33]: 95%
Weight [33]: 6.33 kg
toxicity (in words) (baboons): Extremely low toxicity
